Test results taken from US4443436A, “C-20-Modified macrolide derivatives of the macrolide antibiotics tylosin, desmycosin, macrocin, and lactenocin” (Eli Lilly and Company, priority 1982, dated 1984).
In brackets after ≈: the same amount, converted by molar mass. Like-named read-outs stand apart in the source and are kept apart here.

Assays:
[1] = tested on: Staphylococcus aureus S13E; assay: MIC, standard agar-dilution assay, Staphylococcus aureus S13E; format: cell-based
Mycoplasma synoviae = assay: MIC, broth-dilution microtiter test, Mycoplasma synoviae; format: cell-based
Description: (§1) The MIC's in Table X were obtained using conventional broth-dilution microtiter tests.

[2] = tested on: Streptococcus Group D X66; assay: MIC, standard agar-dilution assay, Streptococcus Group D X66; format: cell-based
Streptococcus Group 9960 = assay: MIC, standard agar-dilution assay, Streptococcus Group 9960; format: cell-based; conditions: Streptococcus Group 9960, agar dilution
[3] = tested on: Streptococcus pneumoniae Park I; assay: microbe, parasite or virus in culture; format: cell-based
Pasteurella multocida = assay: Oral (gavage) treatment of Pasteurella multocida-infected chicks; format: in vivo, one-day-old chicks
Experimental: Many of the C-20 modified derivatives of this invention have also shown in vivo antibacterial activity against infections induced by gram-negative bacteria. Tables XII and XIII summarize the results of tests in which illustrative compounds were evaluated against Pasteurella infection in one-day-old chicks. The compounds were administered parenterally or orally after challenge of the chicks with Pasteurella multocida (0.1 ml of a 10^-4 dilution of a twenty-hour tryptose broth culture of an avian P. multocida given subcutaneously). In these tests, unless indicated otherwise, all non-medicated infected chicks died within 24 hours of Pasteurella challenge. In the tests summarized in Table XII the compounds were administered by subcutaneous injection at a dosage of 30 mg/kg, 1 and 4 hours post-challenge of the chicks with P. multocida. In the test summarized in Table XIII the compounds were administered by gavage at 1 and 5 hours post-challenge of the chicks with P. multocida.

[4] = tested on: Staphylococcus aureus X400; assay: MIC, standard agar-dilution assay, Staphylococcus aureus X400; format: cell-based
[5] = tested on: Streptococcus pyogenes C203; assay: MIC, standard agar-dilution assay, Streptococcus pyogenes C203; format: cell-based
Staphylococcus aureus = assay: MIC, broth-dilution microtiter test, Staphylococcus aureus; format: cell-based; conditions: broth-dilution microtiter
Description: as §1

Mycoplasma hyorhinis = assay: MIC, broth-dilution microtiter test, Mycoplasma hyorhinis; format: cell-based
Description: as §1

[6] = tested on: Haemophilus influenzae Holt; assay: MIC, standard agar-dilution assay, Haemophilus influenzae Holt; format: cell-based
Mycoplasma gallisepticum = assay: MIC, broth-dilution microtiter test, Mycoplasma gallisepticum; format: cell-based; conditions: Mycoplasma gallisepticum, broth-dilution microtiter
Description: as §1

Streptococcus bovis 80 = assay: MIC, broth-dilution microtiter test, Streptococcus bovis 80; format: cell-based
Description: as §1

[7] = tested on: Staphylococcus aureus X1.1; assay: MIC, standard agar-dilution assay, Staphylococcus aureus X1.1; format: cell-based
[8] = tested on: Staphylococcus epidermidis EPI2; assay: MIC, standard agar-dilution assay, Staphylococcus epidermidis EPI2; format: cell-based; conditions: Staphylococcus epidermidis EPI2, agar dilution
[9] = tested on: Staphylococcus epidermidis EPI1; assay: MIC, standard agar-dilution assay, Staphylococcus epidermidis EPI1; format: cell-based
[10] = tested on: Staphylococcus aureus V41; assay: MIC, standard agar-dilution assay, Staphylococcus aureus V41; format: cell-based
Mycoplasma hyopneumoniae = assay: MIC, broth-dilution microtiter test, Mycoplasma hyopneumoniae; format: cell-based
Description: as §1

[11] = tested on: Pasteurella multocida 17E; assay: MIC, broth-dilution microtiter test, Pasteurella multocida 17E; format: cell-based
Description: as §1

[12] = tested on: Haemophilus influenzae R252; assay: MIC, standard agar-dilution assay, Haemophilus influenzae R252; format: cell-based
[13] = tested on: Streptococcus pyogenes C203; assay: In vivo protection of mice experimentally infected with S. pyogenes C203; conditions: mice, doses given 1 and 4 hours post-infection; for ED50: Streptococcus pyogenes
Experimental: The C-20 modified derivatives of this invention have shown in vivo antimicrobial activity against experimentally-induced infections in laboratory animals. When two doses of test compound were administered to mice experimentally infected with S. pyogenes C203, the activity observed was measured as an ED50 value [effective dose in mg/kg to protect 50% of the test animals: see Warren Wick, et al., J. Bacteriol. 81, 233-235 (1961)].

[14] = tested on: Pasteurella multocida 60A; assay: MIC, broth-dilution microtiter test, Pasteurella multocida 60A; format: cell-based; conditions: Pasteurella multocida 60A, avian isolate, broth-dilution microtiter
Description: as §1

[15] = tested on: Pasteurella hemolytica 22C; assay: MIC, broth-dilution microtiter test, Pasteurella hemolytica 22C; format: cell-based; conditions: Pasteurella hemolytica 22C, broth-dilution microtiter
Description: as §1

SMILES: CCC1OC(=O)CC(O)C(C)C(OC2OC(C)C(O)C(N(C)C)C2O)C(CCOc2ccc([N+](=O)[O-])cc2)CC(C)C(=O)C=CC(C)=CC1COC1OC(C)C(O)C(OC)C1OC (stereo not shown) [Compound 34, 20-DH-20-O-(p-Nitrophenyl)desmycosin]
- MIC ([1]; Staphylococcus aureus, S13E): 0.5 µg/mL (≈ 0.559 µM)
- MIC (Mycoplasma synoviae; Mycoplasmopsis synoviae): 0.78 µg/mL (≈ 0.871 µM)
- MIC [2]: 4 µg/mL (≈ 4.47 µM)
- MIC (Streptococcus Group 9960; GROUP9960, read-out: MIC): 8 µg/mL (≈ 8.94 µM)
- MIC ([3]; Streptococcus pneumoniae): 1 µg/mL (≈ 1.12 µM)
- Number of Deaths/Number tested (Pasteurella multocida; 0.5 g/gal equivalent): 7/10
- Number of Deaths/Number tested (Pasteurella multocida; 1.0 g/gal equivalent): 9/10
- MIC ([4]; Staphylococcus aureus, X400): 1 µg/mL (≈ 1.12 µM)
- MIC ([5]; Streptococcus pyogenes, C203): 1 µg/mL (≈ 1.12 µM)
- MIC (Staphylococcus aureus; read-out: MIC): 0.39 µg/mL (≈ 0.436 µM)
- MIC (Mycoplasma hyorhinis; Mycoplasma): 50 µg/mL (≈ 55.9 µM)
- MIC ([6]; Haemophilus influenzae): 16 µg/mL (≈ 17.9 µM)
- MIC (Mycoplasma gallisepticum; Mycoplasmoides gallisepticum, read-out: MIC): 0.39 µg/mL (≈ 0.436 µM)
- MIC (Streptococcus bovis 80; Streptococcus equinus, 80): 1.56 µg/mL (≈ 1.74 µM)
- MIC ([7]; Staphylococcus aureus, X1.1): 0.5 µg/mL (≈ 0.559 µM)
- MIC ([8]; read-out: MIC): 0.12 µg/mL (≈ 0.134 µM)
- MIC ([9]; Staphylococcus epidermidis, EPI1): 0.5 µg/mL (≈ 0.559 µM)
- MIC ([10]; Staphylococcus aureus, V41): 0.5 µg/mL (≈ 0.559 µM)
- MIC (Mycoplasma hyopneumoniae; Mesomycoplasma hyopneumoniae): 12.5 µg/mL (≈ 14 µM)
- MIC ([11]; Pasteurella multocida, 17E): 12.5 µg/mL (≈ 14 µM)
- MIC ([12]; Haemophilus influenzae, R252): 16 µg/mL (≈ 17.9 µM)
- ED50 ([13]; C203, sc, subcutaneous, read-out: ED50, Subcutaneous): 1.1 mg/kg
- ED50 ([13]; C203, oral, read-out: ED50, Oral): 5 mg/kg
- MIC ([14]; read-out: MIC): 25 µg/mL (≈ 27.9 µM)
- MIC ([15]; read-out: MIC): 25 µg/mL (≈ 27.9 µM)

SMILES: CCC1OC(=O)CC(O)C(C)C(OC2OC(C)C(O)C(N(C)C)C2O)C(CCOc2cc(Cl)cc(Cl)c2)CC(C)C(=O)C=CC(C)=CC1COC1OC(C)C(O)C(OC)C1OC (stereo not shown) [Compound 40, 20-DH-20-O-(3,5-Dichlorophenyl)desmycosin]
- MIC ([1]; Staphylococcus aureus S13E, agar dilution): 0.25 µg/mL (≈ 0.272 µM)
- MIC (Mycoplasma synoviae; Mycoplasma synoviae, broth-dilution microtiter): 0.19 µg/mL (≈ 0.207 µM)
- MIC ([2]; Streptococcus Group D X66, agar dilution): 4 µg/mL (≈ 4.35 µM)
- MIC (Streptococcus Group 9960): 8 µg/mL (≈ 8.71 µM)
- MIC ([3]; Streptococcus pneumoniae Park I, agar dilution): 1 µg/mL (≈ 1.09 µM)
- Number of Deaths/Number tested (Pasteurella multocida; 1.5 g/gal equivalent): 10/10
- MIC ([4]; Staphylococcus aureus X400, methicillin-resistant strain, agar dilution): 0.25 µg/mL (≈ 0.272 µM)
- MIC ([5]; Streptococcus pyogenes C203, agar dilution): 0.12 µg/mL (≈ 0.131 µM)
- MIC (Staphylococcus aureus): 0.39 µg/mL (≈ 0.424 µM)
- MIC (Mycoplasma hyorhinis; Mycoplasma hyorhinis, broth-dilution microtiter): 12.5 µg/mL (≈ 13.6 µM)
- MIC ([6]; Haemophilus influenzae Holt, ampicillin-sensitive strain, agar dilution): 32 µg/mL (≈ 34.8 µM)
- MIC (Mycoplasma gallisepticum): < 0.05 µg/mL
- MIC (Streptococcus bovis 80; Streptococcus bovis 80, broth-dilution microtiter): 3.12 µg/mL (≈ 3.4 µM)
- MIC ([7]; Staphylococcus aureus X1.1, agar dilution): 0.25 µg/mL (≈ 0.272 µM)
- MIC [8]: 0.12 µg/mL (≈ 0.131 µM)
- MIC ([9]; Staphylococcus epidermidis EPI1, agar dilution): 0.25 µg/mL (≈ 0.272 µM)
- MIC ([10]; Staphylococcus aureus V41, penicillin-resistant strain, agar dilution): 0.25 µg/mL (≈ 0.272 µM)
- MIC (Mycoplasma hyopneumoniae; Mycoplasma hyopneumoniae, broth-dilution microtiter): 12.5 µg/mL (≈ 13.6 µM)
- MIC ([11]; Pasteurella multocida 17E, bovine isolate, broth-dilution microtiter): 12.5 µg/mL (≈ 13.6 µM)
- MIC ([12]; Haemophilus influenzae R252, ampicillin-resistant strain, agar dilution): 16 µg/mL (≈ 17.4 µM)
- ED50, Oral ([13]; oral): 31 mg/kg × 2
- ED50, Subcutaneous ([13]; subcutaneous): > 10 mg/kg × 2
- MIC [14]: 12.5 µg/mL (≈ 13.6 µM)
- MIC [15]: 12.5 µg/mL (≈ 13.6 µM)
